Among the data in ChEMBL document CHEMBL4831523, “Taichunins E-T, Isopimarane Diterpenes and a 20-nor-Isopimarane, from Aspergillus taichungensis (IBT 19404): Structures and Inhibitory Effects on RANKL-Induced Formation of Multinuclear Osteoclasts” (J Nat Prod, 2021) are Activity, inhibition and IC50 values, retold here.

Active and inactive are the calls of the source. The calls are words filed in the database; no cut-off is given here.

The subject of data set [1] is RAW264.7. Nature of the data set: Cytotoxicity against RANKL-treated mouse RAW264.7 cells assessed as effect on cell viability at 50 uM measured after 4 days by MTT assay. Type of data set: cell-based. The note with it: raw264.7, 96 h, time 4 day. (Formazan colour is commonly taken as a measure of viable cells.)
Data set [2] deals with RAW264.7. Nature of the data set: Inhibition of RANKL-induced osteoclastogenesis in mouse RAW264.7 cells assessed as reduction in Nfatc1 mRNA expression at 30 uM measured after 24 hrs by qRT-PCR method. Format: functional. On the technique in general: In qPCR the cycle at which signal appears reflects the starting amount.
Data set [3] has as its system RAW264.7. Nature of the data set: Inhibition of RANKL-induced osteoclastogenesis in mouse RAW264.7 cells assessed as reduction in number of TRAP-positive multinuclear cells measured after 4 days by TRAP staining based assay. Format: functional, cell-based. Conditions: for inhibition: time 4.0 day.
Data set [4] deals with RAW264.7. Nature of the data set: Inhibition of RANKL-induced osteoclastogenesis in mouse RAW264.7 cells assessed as reduction in TRAP activity at 5 uM measured after 4 days by pNPP based assay. Format: functional, cell-based. Conditions: time 4.0 day.
Data set [5] deals with RAW264.7. Nature of the data set: Inhibition of RANKL-induced osteoclastogenesis in mouse RAW264.7 cells assessed as reduction in number of TRAP-positive multinuclear cells at 5 uM measured after 4 days by TRAP staining based assay. Type of data set: functional, cell-based. The note with it: time 4.0 day.
The test system of data set [6] is RAW264.7. Nature of the data set: Inhibition of RANKL-induced osteoclastogenesis in mouse RAW264.7 cells assessed as reduction in TRAP activity measured after 4 days by pNPP based assay. Format: functional, cell-based. The note with it: dose 0.2-1 µM, time 4.0 day.
Data set [7] deals with RAW264.7. Nature of the data set: Inhibition of RANKL-induced osteoclastogenesis in mouse RAW264.7 cells assessed as reduction in number of TRAP-positive multinuclear cells at 0.2 uM measured after 4 days by TRAP staining based assay. Format: functional. Conditions: RAW264.7, 96 h, time 4 day.

Consider `C=C[C@]1(C)C=C2[C@H]3OC(=O)[C@@]4(CCCC(C)(C)[C@@H]4[C@H]3O)[C@@]2(O)CC1`, for which the Activity entry with RAW264.7 [1] is “Non-Toxic”.

The term inhibition denotes the drop in the measured response relative to a control, in per cent. One may read the IC50 as the point on the concentration scale where inhibition reaches its midpoint. Turning to `C=C[C@]1(C)C=C2[C@@H](O)[C@@]3(O)OC(=O)[C@@]4(CCCC(C)(C)[C@H]34)[C@@]2(O)CC1` [SPHAEROPSIDIN B], the Activity entry with RAW264.7 [1] was “Non-Toxic”. Moreover, the inhibition at 30 µM in the data set on RAW264.7 [2] came out at 63%. The 50% inhibitory concentration (IC50) with RAW264.7 [3] (RAW264.7, 96 h) was 10.6 µM.

With `C=C[C@]1(C)C=C2[C@@H](O)C[C@H]3C(C)(C)CCC[C@]3(C(=O)O)[C@H]2CC1`, the Activity entry in the data set on RAW264.7 [1] is “Non-Toxic”.

Regarding `C=C[C@]1(C)C=C2C(=O)C(=O)[C@H]3C(C)(C)CCC[C@]3(C(=O)O)[C@@]2(O)CC1`, in the data set with RAW264.7 [1], the Activity result is given as “Non-Toxic”.

`C=C[C@@]1(C)CC[C@H]2C(=C[C@H](O)[C@H]3C(C)(C)CC[C@@H](O)[C@]23C)[C@H]1O`: the Activity result with RAW264.7 [1] is “Non-Toxic”.

Consider `C=C[C@]1(C)C=C2[C@@H](O)C[C@H]3C(C)(C)CCC[C@]3(C(=O)O)[C@@]2(O)[C@H](O)C1`, for which the Activity entry in the data set with RAW264.7 [1] is on record as “Non-Toxic”.

As for `C=C[C@@]1(C)C[C@@H](O)[C@@H]2[C@@]34CCCC(C)(C)[C@@H]3[C@H](O)C(=O)[C@@]2(OC4=O)[C@H]1O`, in the data set with RAW264.7 [1], the Activity result is on record as “Non-Toxic”.

On to `C=C[C@@]1(C)CC(=O)C2=C([C@H]1O)[C@@]1(O)OC[C@@]23CCCC(C)(C)[C@@H]3[C@H]1O`, for which the Activity entry in the data set with RAW264.7 [1] is reported as “Non-Toxic”.

Take `C=C[C@@]1(C)CC[C@]2(O)[C@@]34CCCC(C)(C)C3=C(O)C(=O)[C@@]2(OC4=O)[C@H]1O`: the Activity result with RAW264.7 [1] is “Non-Toxic”.

Take `C=C[C@]1(C)C=C2[C@@H](O)C(=O)[C@H]3C(C)(C)CCC[C@]3(C(=O)O[C@@H]3O[C@H](CO)[C@@H](O)[C@H](O)[C@H]3O)[C@H]2CC1`: the Activity entry with RAW264.7 [1] is reported as “Non-Toxic”. Further, the inhibition entry in the data set on RAW264.7 [4] and in the data set with RAW264.7 [5] was “Active” throughout. For the same molecule, the inhibition result in the data set with RAW264.7 [6] and in the data set on RAW264.7 [3] was “Dose-Dependent Effect” throughout.

Regarding `C=C[C@@]1(C)C[C@@H](O)[C@H]2C(=C[C@H](O)[C@H]3C(C)(C)CCC[C@]23C)[C@H]1O`, in the data set with RAW264.7 [1], the Activity entry is given as “Non-Toxic”.

Turning to `C=C[C@]1(C)C=C2[C@H]3OC(OC)[C@@]4([C@H](O)CCC(C)(C)[C@@H]4[C@H]3O)[C@H]2CC1` (stereo not given in full), the Activity result in the data set with RAW264.7 [1] was “Non-Toxic”.

Regarding `C=C[C@]1(C)C=C2[C@H]([C@@H](O)C1)[C@@]1(C(=O)O)CCCC(C)(C)[C@@H]1C[C@@H]2O`, the Activity result with RAW264.7 [1] is given as “Non-Toxic”. Besides, the inhibition result in the data set with RAW264.7 [4] and in the data set with RAW264.7 [5] was “Active” throughout. Moreover, the inhibition at 0.2 µM in the data set with RAW264.7 [7] came to 92%. Besides, the inhibition entry in the data set with RAW264.7 [6] and in the data set with RAW264.7 [3] was “Dose-Dependent Effect” in each case.

Regarding `C=C[C@@]1(C)CCc2c3c(c(O)c(OS(=O)(=O)O)c2[C@H]1O)C(C)(C)CCC3`, the Activity result with RAW264.7 [1] was “Non-Toxic”.

With `C=C[C@]1(C)C=C2[C@H]3OC(=O)[C@@]4(CCCC(C)(C)[C@@H]4[C@H]3O)[C@H]2CC1`, the Activity result with RAW264.7 [1] was “Non-Toxic”. In addition, the inhibition entry in the data set on RAW264.7 [4] and in the data set on RAW264.7 [5] was “Active” in each case. In addition, the inhibition result in the data set with RAW264.7 [6] and in the data set on RAW264.7 [3] was “Dose-Dependent Effect” throughout.

As for `C=C[C@]1(C)C=C2C(=O)C[C@H]3C(C)(C)CCC[C@]3(C(=O)O)[C@@]2(O)CC1` [SPHAEROPSIDIN C], in the data set on RAW264.7 [1], the Activity result is reported as “Non-Toxic”.

Consider `C=C[C@@]1(C)CC[C@H]2[C@H]([C@H]1O)[C@@H](O)C[C@H]1C(C)(C)CCC[C@]21C(=O)O`, for which, in the data set on RAW264.7 [1], the Activity result is on record as “Non-Toxic”.

With `C=C[C@]1(C)C=C2C(=O)C[C@H]3C(C)(C)CC[C@@H](O)[C@]3(C(=O)O)[C@H]2CC1`, the Activity entry with RAW264.7 [1] is “Non-Toxic”.

For `C=C[C@]1(C)C=C2[C@H](O)C[C@H]3C(C)(C)CC[C@@H](O)[C@]3(C)[C@H]2CC1`, the Activity result in the data set with RAW264.7 [1] is given as “Non-Toxic”.

In the case of `C=C[C@]1(C)C=C2C(=O)[C@@H](O)[C@H]3C(C)(C)CCC[C@]3(C(=O)O[C@@H]3O[C@H](CO)[C@@H](O)[C@H](O)[C@H]3O)[C@H]2CC1`, the Activity entry in the data set on RAW264.7 [1] is “Non-Toxic”.
